This is an account of results in patent publication EP4775208A1, “USE OF PRMT5 INHIBITOR IN TREATMENT OF TUMORS OR CANCERS” (Apeiron Therapeutics (Hong Kong) Ltd., priority 2023, dated 2025).

Test [1] has as its system HCT-116 MTAP(-/-) deficient cells. As to the kind of experiment: Inhibition of proliferation of HCT-116 MTAP(-/-) deficient cells (Cell-Titer Glo). It is filed as cell-based. Particulars: 8 days. The protocol: Test 1: Compound's inhibitory activity on proliferation of HCT-116 MTAP(-/-) deficient cells.
Materials and Cells: HCT-116 MTAP(-/-) deficient cells obtained from Kyinno Bio (China); RPMI-1640 medium, fetal bovine serum, and penicillin-streptomycin purchased from Thermo Fisher Scientific (America); 384-well plates from PerkinElmer (America); Cell-Titer Glo assay kit from Promega (America).
Cell Culture: HCT116 MTAP(-/-) deficient cells were cultured in RPMI 1640 medium containing 10% fetal bovine serum and 1% penicillin-streptomycin at 37°C, 5% CO2. Only cells in logarithmic growth phase were used for experiments.
Cell Proliferation Inhibition Assay: The compound's inhibitory activity on HCT-116 MTAP(-/-) deficient cells was assessed using the Cell-Titer Glo assay kit. Adjusting cell concentration, 40 µL was seeded into a 384-well plate and cultured overnight at 37°C, 5% CO2. Each well received 40 nL of the compound, achieving concentrations from 0 to 10,000 nM (starting concentration 10,000 nM, 3-fold dilution, 10 points), with 0.1% DMSO. The cell plate was incubated for 8 days at 37°C, 5% CO2. Cell-Titer Glo reagent (40 µL) was added to measure cell viability.

Test [2] relates to HCT-116 MTAP wild-type cells. As to the kind of experiment: Inhibition of proliferation of HCT-116 MTAP wild-type cells (Cell-Titer Glo). Particulars: 8 days. It is filed as cell-based. The protocol: Test 2: Compound's inhibitory activity on proliferation of HCT-116 MTAP wild-type cells.
Materials and Cells: HCT-116 MTAP wild-type cells obtained from Kyinno Bio (China); RPMI-1640 medium, fetal bovine serum, and penicillin-streptomycin purchased from Thermo Fisher Scientific (America); 384-well plates from PerkinElmer (America); Cell-Titer Glo assay kit from Promega (America).
Cell Culture: HCT116 MTAP wild-type cells were cultured in RPMI 1640 medium containing 10% fetal bovine serum and 1% penicillin-streptomycin at 37°C, 5% CO2. Only cells in logarithmic growth phase were used for experiments.
Cell Proliferation Inhibition Assay: The compound's inhibitory activity on HCT-116 MTAP wild-type cells was assessed using the Cell-Titer Glo assay kit. Adjusting cell concentration, 40 µL was seeded into a 384-well plate and cultured overnight at 37°C, 5% CO2. Each well received 40 nL of the compound, achieving concentrations from 0 to 10,000 nM (starting concentration 10,000 nM, 3-fold dilution, 10 points), with 0.1% DMSO. The cell plate was incubated for 8 days at 37°C, 5% CO2. Cell-Titer Glo reagent (40 µL) was added to measure cell viability.

A value given as a limit tells only on which side of the number the result lay.

Turning to “4-amino-N-methyl-N-(8-(trifluoromethyl)-1, 3,4,5-tetrahydrobenzo [c]oxepin-5-yl)imidaz o[1,5-a]quinoxaline-8 -carboxamide [Example 44]”, the IC50 (usually the concentration at which inhibition is half-maximal) is 310 nM in test [1] and greater than 10000 nM in test [2].

As to “4-amino-N-methyl-N-((1S,4S)-1-methyl-7-( trifluoromethyl)isochr oman-4-yl)imidazo[1, 5-a]quinoxaline-8-car boxamide [Example 105]”, the IC50 in test [1] stood at 66.1 nM; in test [2] it was 2190 nM.

Regarding `Nc1nc2ccc(C(=O)N(C3CC3)[C@@H]3COc4cc(C(F)(F)F)ccc43)cc2n2cncc12` (single isomer, unassigned) [Example 84], the IC50 was determined as 21.9 nM in test [1] (Homo sapiens, HCT-116, 192 h) and 1470 nM in test [2] (Homo sapiens, HCT-116, 192 h).

Turning to `Cc1ncn2c1c(N)nc1ccc(C(=O)N(C3CC3)[C@H]3COc4cc(C(F)(F)F)ccc43)cc12` (single isomer, unassigned) [Example 85], the IC50 in test [1] (Homo sapiens, HCT-116, 192 h) amounted to 791 nM; in test [2] (Homo sapiens, HCT-116, 192 h) it was 781 nM.

Take `Cc1ncn2c1c(N)nc1ccc(C(=O)N(C3CC3)[C@@H]3COc4cc(C(F)(F)F)ccc43)cc12` (single isomer, unassigned) [Example 86]: the IC50 was 61.1 nM in test [1] (Homo sapiens, HCT-116, 192 h) and 1330 nM in test [2] (Homo sapiens, HCT-116, 192 h).

As to `CN(C(=O)c1ccc2nc(N)c3cncn3c2c1)[C@H]1COCc2ccc(C(F)(F)F)cc21` (single isomer, unassigned) [Example 93], the IC50 in test [1] (Homo sapiens, HCT-116, 192 h) is greater than 3000 nM; in test [2] (Homo sapiens, HCT-116, 192 h) it was greater than 10000 nM.

Turning to `CN(C(=O)c1ccc2nc(N)c3cncn3c2c1)[C@@H]1COCc2ccc(C(F)(F)F)cc21` (single isomer, unassigned) [Example 94], the IC50 was 80.8 nM in test [1] (Homo sapiens, HCT-116, 192 h) and 5170 nM in test [2] (Homo sapiens, HCT-116, 192 h).

With `C[C@@H]1OC[C@@H](N(C)C(=O)c2ccc3nc(N)c4cncn4c3c2)c2ccc(F)cc21` (single isomer, unassigned) [Example 95], the IC50 in test [1] (Homo sapiens, HCT-116, 192 h) is 211 nM; in test [2] (Homo sapiens, HCT-116, 192 h), greater than 10000 nM.

As to `C[C@@H]1OC[C@@H](N(C)C(=O)c2cc3c(cn2)nc(N)c2cncn23)c2ccc(C(F)(F)F)cc21` (single isomer, unassigned) [Example 97], the IC50 in test [1] (Homo sapiens, HCT-116, 192 h) worked out at 29.8 nM; in test [2] (Homo sapiens, HCT-116, 192 h) it was 1550 nM.

On to `C[C@@H]1OC[C@@H](N(C)C(=O)c2ccc3nc(N)c4cncn4c3c2)c2cc(F)ccc21` (single isomer, unassigned) [Example 99], for which the IC50 in test [1] (Homo sapiens, HCT-116, 192 h) is 928 nM; in test [2] (Homo sapiens, HCT-116, 192 h) it was 7130 nM.

As for `C[C@H]1OC[C@@H](N(C)C(=O)c2ccc3nc(N)c4cncn4c3c2)c2cc(F)ccc21` (single isomer, unassigned) [Example 100], the IC50 in test [1] (Homo sapiens, HCT-116, 192 h) worked out at 68.3 nM; in test [2] (Homo sapiens, HCT-116, 192 h) it was 3580 nM.

In the case of `CN(C(=O)c1ccc2nc(N)c3cncn3c2c1)[C@H]1CSc2cc(C(F)(F)F)ccc21` (single isomer, unassigned) [Example 101], the IC50 is 2190 nM in test [1] (Homo sapiens, HCT-116, 192 h) and greater than 10000 nM in test [2] (Homo sapiens, HCT-116, 192 h).

For `CN(C(=O)c1ccc2nc(N)c3cncn3c2c1)[C@@H]1CSc2cc(C(F)(F)F)ccc21` (single isomer, unassigned) [Example 102], the IC50 was 7.9 nM in test [1] (Homo sapiens, HCT-116, 192 h) and 1990 nM in test [2] (Homo sapiens, HCT-116, 192 h).

As to `CN(C(=O)c1cc2c(cc1F)nc(N)c1cncn12)[C@H]1COC(C)(C)c2cc(C(F)(F)F)ccc21` (single isomer, unassigned) [Example 134], the IC50 in test [1] (Homo sapiens, HCT-116, 192 h) worked out at 623 nM; in test [2] (Homo sapiens, HCT-116, 192 h) it was 5890 nM.

In the case of `CN(C(=O)c1cc2c(cc1F)nc(N)c1cncn12)[C@@H]1COC(C)(C)c2cc(C(F)(F)F)ccc21` (single isomer, unassigned) [Example 135], the IC50 in test [1] (Homo sapiens, HCT-116, 192 h) turned out to be 9.3 nM; in test [2] (Homo sapiens, HCT-116, 192 h), 1960 nM.

As for `CN(C(=O)c1ccc2nc(N)c3cncn3c2c1)C1COc2ccccc21` (centres unmarked) [Example 1, 4-amino-N-(2,3-dihydrobenzofuran-3-yl)-N-methylimidazo[1,5-a]quinoxaline-8-carboxamide], the IC50 in test [1] (Homo sapiens, HCT-116, 192 h) was 2310 nM; in test [2] (Homo sapiens, HCT-116, 192 h) it was greater than 10000 nM.
